Source: US20090030038A1, “Novel 8-Sulfonylamino-3 Aminosubstituted Chroman or Tetrahydronaphtalene Derivatives Modulating the 5Ht6 Receptor” (ASTRAZENECA AB, priority 2005, published 2009)

Target: T1, rat striatal 5HT6 receptors (Rattus norvegicus, UniProt P31388)
T1 construct: Striatal tissue from adult rats (Sprague-Dawley, 320-370 g, B & K Sweden) were dissected out, weighed and homogenized; from tissue; host or cells: rat striatum (Sprague-Dawley) membranes
Test: [125I]SB258585 binding to rat striatal 5HT6 receptors
Settings: competition with [125I]SB258585, rat striatal membranes
Experimental: Method for [125I]SB258585 binding to rat striatal 5HT6 receptors
[125I]SB258585 (1) with specific activity 2000 Ci/mmol was purchased from Amersham Biosciences Europe GmbH, Freiburg, Germany. Other chemicals were purchased from commercial sources and were of analytical grade.
Striatal tissue from adult rats (Sprague-Dawley, 320-370 g, B & K Sweden) were dissected out, weighed and homogenized in buffer containing 50 mM Tris-HCl, 4 mM MgCl2, 1 mM EDTA, 10 μM pargyline and protease inhibitor (Complete, Roche Diagnostics) pH 7.4 using an Ultra-Turrax T8 (IKA Labortechnik, Germany). The tissue homogenate was centrifuged at 48 000×g for 10 min and the pellet was resuspended and recentrifuged as above. The final membranes were diluted in buffer to a concentration of 60 mg original wet weight (w.w.) per ml and stored in aliquots at −70° C.
Saturation binding studies were carried out in duplicate with 1-3 mg w.w. per tube in 0.5 ml buffer (50 mM Tris, 4 mM MgCl2, 100 mM NaCl, 1 mM EDTA, 5 mM ascorbate and 10 μM pargyline at pH 7.4), 0.2 nM [125I]SB258585 and unlabelled SB258585 to give a final concentration range of 0.23-20 nM (12 conc.). Non-specific binding was determined in the presence of 10 μM methiothepin. In the competition experiments 0.8-2 mg w.w. per tube and a radioligand concentration of 0.5-1 nM were used with 7 concentrations of the competing drug pre-dissolved in DMSO and diluted in buffer. The assays were incubated for 1-3 hours at room temperature, and terminated by rapid filtration through Whatman GF/B filters pretreated with 0.3% polyethyleneimine using a Brandel cell harvester. The radioactivity was determined in a Packard Tri-Carb 2900TR liquid scintillation counter. Data were analyzed by non-linear regression analyses using PRISM 4.00 (GraphPad Software Inc., San Diego, Calif.).
Hirst, W. D., Minton, J. A. L., Bromidge, S. M., Moss, S. F., Latter, A., Riley, G., Routledge, C., Middlemiss, D. N. & Price, G. W. (2000). Characterization of [125I]-SB-258585 binding to human recombinant and native 5HT6 receptors in rat, pig and human brain tissue. Br. J. Pharmacol., 130, 1597-1605.

T1 sequence (P31388 whole entry): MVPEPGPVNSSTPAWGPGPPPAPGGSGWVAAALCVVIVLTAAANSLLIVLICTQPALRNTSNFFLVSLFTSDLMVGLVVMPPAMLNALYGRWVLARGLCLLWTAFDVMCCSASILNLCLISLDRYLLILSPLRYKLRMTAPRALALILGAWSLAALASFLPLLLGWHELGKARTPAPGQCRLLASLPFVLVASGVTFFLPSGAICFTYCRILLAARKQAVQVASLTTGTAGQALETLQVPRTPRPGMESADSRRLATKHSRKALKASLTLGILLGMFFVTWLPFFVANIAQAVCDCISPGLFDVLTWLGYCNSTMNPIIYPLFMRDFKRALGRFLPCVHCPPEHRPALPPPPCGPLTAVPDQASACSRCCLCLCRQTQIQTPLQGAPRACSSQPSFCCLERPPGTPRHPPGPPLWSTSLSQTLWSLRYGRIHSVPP

Row | Compound | Ki [nM]
1 | COc1ccc(NS(=O)(=O)c2cccc(Br)c2)c2c1C[C@@H](N(C)C)CO2 [Example 3, 3-Bromo-N-[(3R)-3-(dimethylamino)-5-methoxy-3,4-dihydro-2H-chromen-8-yl]benzenesulfonamide] | 7.5 ± 3.6
2 | COc1ccc(NS(=O)(=O)c2ccc3ccccc3c2)c2c1C[C@@H](N(C)C)CO2 [Example 24, N-[(3R)-3-(dimethylamino)-5-methoxy-3,4-dihydro-2H-chromen-8-yl]naphthalene-2-sulfonamide] | 42 ± 27
3 | COc1ccc(NS(=O)(=O)c2ccccc2-c2ccccc2)c2c1C[C@@H](N(C)C)CO2 [Example 122, N-[(3R)-3-(dimethylamino)-5-methoxy-3,4-dihydro-2H-chromen-8-yl]-1,1′-biphenyl-2-sulfonamide] | 2 ± 0.6
4 | COc1ccc(NS(=O)(=O)c2ccc(-c3ccnc(SC)n3)s2)c2c1C[C@@H](N(C)C)CO2 [Example 135, N-[(3R)-3-(dimethylamino)-5-methoxy-3,4-dihydro-2H-chromen-8-yl]-5-[2-(methylthio)pyrimidin-4-yl]thiophene-2-sulfonamide] | 49 ± 16
5 | CN(C)[C@H]1CCc2c(cccc2NS(=O)(=O)c2cccc(Br)c2)C1 [Example 170, (2S)-5-{[(3-Bromophenyl)sulfonyl]amino}-N,N-dimethyl-1,2,3,4-tetrahydronaphthalen-2-ammonium Acetate] | 74
6 | COc1ccc(NS(=O)(=O)c2ccccc2-c2ccccc2)c2c1C[C@@H](N(C)C)CC2 [Example 176, N-[(6S)-6-(dimethylamino)-4-methoxy-5,6,7,8-tetrahydronaphthalen-1-yl]-1,1′-biphenyl-2-sulfonamide] | 13 ± 5.9
7 | COc1ccc(NS(=O)(=O)c2sc3ccc(F)cc3c2C)c2c1C[C@@H](N(C)C)CC2 [Example 181, N-[(6S)-6-(dimethylamino)-4-methoxy-5,6,7,8-tetrahydronaphthalen-1-yl]-5-fluoro-3-methyl-1-benzothiophene-2-sulfonamide] | 19 ± 0.8
8 | COc1ccc(NS(=O)(=O)c2cc(Cl)cc(Cl)c2)c2c1C[C@@H](N1CCCC1)CC2 [Example 313, 3,5-Dichloro-N-[(6S)-4-methoxy-6-pyrrolidin-1-yl-5,6,7,8-tetrahydronaphthalen-1-yl]benzenesulfonamide] | 290 ± 190
